US20060211650A1, “Reducing carbohydrate derivatives of adamantane amines, and synthesis and methods of use thereof” (Forest Laboratories, Inc., priority 2004, published 2006)
Values joined by “and” are separate entries in the source; they are usually repeats but may differ in a detail not shown here. Identical values can stand only once.

Tests used:
Assay in all cases: Disk assay, zone of inhibition
Assay type in all cases: cell-based
[1] = test system: Staphylococcus aureus, ATCC #6538
Protocol: (§1) The antibiotic activity of a 1% memantine-lactose adduct solution in saline was assayed using a disk assay against three USP bacteria cultures: Staphylococcus aureus, Pseudomonas aeruginosa and Escherichia coli. A negative control, 0.9% saline disk, and a positive control, 1% gentamicin solution in saline, were included. Antibacterial activity was evaluated by measuring (in mm) the size of any clear zone of no growth (i.e., Zone of Inhibition) around each sample. A “No Zone” is reported when no antibacterial activity is observed. […] These experiments may be predictive of biological effects in humans or other mammals and/or may serve as models for use of the present invention in humans or other mammals for the treatment of infections caused by Gram positive or Gram negative bacteria. See, e.g., Kustimur et al., Chinese Medical Journal, 116(4):633-636 (2003).

[2] = test system: Pseudomonas aeruginosa, ATCC #9027; settings: 1% solution in saline on disk, Plates 1-3, "No Zone" = no antibacterial activity observed
Protocol: as §1

[3] = test system: Escherichia coli, ATCC #8739; settings: 1% solution in saline on disk, Plates 1-3, "No Zone" = no antibacterial activity observed
Protocol: as §1

Row | Molecule | antibacterial activity (result in words) ([1]; Staphylococcus aureus, 1% solution in saline, disk assay) | Zone of Inhibition [2] | Zone of Inhibition [3] | Zone of Inhibition ([1]; Staphylococcus aureus ATCC #6538, 1% solution in saline on disk, Plates 1-3, "No Zone" = no antibacterial activity observed)
1 | CC12CC3CC(C)(C1)CC(NCC(=O)[C@@H](O)C(O[C@@H]1O[C@H](CO)[C@@H](O)[C@H](O)[C@H]1O)[C@H](O)CO)(C3)C2 (stereo partly drawn) [Memantine-lactose adduct] | found to have antibacterial activity | No Zone | No Zone | 
2 | gentamicin |  | 11.2 mm and 10.9 mm and 9.9 mm | 15.5 mm and 16.8 mm | 19.3 mm and 19.1 mm and 15.8 mm
